# Values quoted from earlier work as cited in patent US20170224670A1, “Drug Combination to Treat Melanoma” (Exelixis, Inc., priority 2014, published 2017).
# Test system: BRAF mutation-associated melanomas
# Details: from initial use, patients taking the drug
smiles,measurement,value
CCCS(=O)(=O)Nc1ccc(F)c(C(=O)c2c[nH]c3ncc(-c4ccc(Cl)cc4)cc23)c1F [vemurafenib],"Time to development of resistance, on average",≤ 7 months
